Data published in patent US11053204B2, “Pyrimidinyloxy benzene derivatives as herbicides” (FMC Corporation, priority 2015, dated 2021).

Experiments:
Type in all cases: in vivo
[1] = test system: large (Lg) crabgrass (Digitaria sanguinalis); assay: Test A postemergence, visual injury rating; details: 1000 g ai/ha, 0 is no effect, 100 is complete control
Outline: (§1)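 Pre- and postemergence greenhouse screen. Soil: loam + sand. Spray carrier: solvent mixture, non-phytotoxic, with surfactant. Post timing at 1–2 leaves, height 2–10 cm. Readout: visual injury on a 0–100 scale roughly 10 days after application, untreated plants as reference.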

[2] = test system: wheat (Triticum aestivum); assay: Test A postemergence, visual injury rating; details: 0 is no effect, 100 is complete control
Outline: as §1

[3] = test system: morningglory (Ipomoea spp.); assay: Test A postemergence, visual injury rating; details: 1000 g ai/ha, 0 is no effect, 100 is complete control
Outline: as §1

corn (Zea mays) [4] = assay: Test A postemergence, visual injury rating; details: 0 is no effect, 100 is complete control
Outline: as §1

[5] = test system: pigweed (Amaranthus retroflexus); assay: Test A postemergence, visual injury rating; details: 0 is no effect, 100 is complete control
Outline: as §1

[6] = test system: barnyardgrass (Echinochloa crus-galli); assay: Test A postemergence, visual injury rating; details: 0 is no effect, 100 is complete control
Outline: as §1

[7] = test system: giant foxtail (Setaria faberii); assay: Test A postemergence, visual injury rating; details: 0 is no effect, 100 is complete control
Outline: as §1

[8] = test system: large (Lg) crabgrass (Digitaria sanguinalis); assay: Test A preemergence, visual injury rating; details: 1000 g ai/ha, 0 to 100 scale (0 no effect, 100 complete control)
Outline: as §1

[9] = test system: wheat (Triticum aestivum); assay: Test A preemergence, visual injury rating; details: 1000 g ai/ha, 0 to 100 scale (0 no effect, 100 complete control)
Outline: as §1

[10] = test system: morningglory (Ipomoea spp.); assay: Test A preemergence, visual injury rating; details: 1000 g ai/ha, 0 to 100 scale (0 no effect, 100 complete control)
Outline: as §1

corn (Zea mays) [11] = assay: Test A preemergence, visual injury rating; details: 1000 g ai/ha, 0 to 100 scale (0 no effect, 100 complete control)
Outline: as §1

[12] = test system: pigweed (Amaranthus retroflexus); assay: Test A preemergence, visual injury rating; details: for Pigweed plant response rating: 0 to 100 scale (0 no effect, 100 complete control)
Outline: as §1

[13] = test system: barnyardgrass (Echinochloa crus-galli); assay: Test A preemergence, visual injury rating; details: for Barnyardgrass plant response rating: 0 to 100 scale (0 no effect, 100 complete control)
Outline: as §1

[14] = test system: velvetleaf (Abutilon theophrasti); assay: Test A preemergence, visual injury rating; details: 1000 g ai/ha, 0 to 100 scale (0 no effect, 100 complete control)
Outline: as §1

[15] = test system: giant foxtail (Setaria faberii); assay: Test A preemergence, visual injury rating; details: for Foxtail, Giant plant response rating: 0 to 100 scale (0 no effect, 100 complete control)
Outline: as §1

[16] = test system: ducksalad (Heteranthera limosa); assay: Test B flooded paddy test, plant response rating; details: 250 g ai/ha; Flood; scale of 0 to 100 where 0 is no effect and 100 is complete control; 13 to 15 days
Outline: (§2)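 Pots were flooded to 3 cm above the soil surface at treatment, compound applied directly to the paddy water, and that depth held throughout. Plants were kept in a greenhouse for 13 to 15 days, then visually rated against untreated controls.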

rice (Oryza sativa) [17] = assay: Test B flooded paddy test, plant response rating; details: 250 g ai/ha; Flood; scale of 0 to 100 where 0 is no effect and 100 is complete control; 13 to 15 days
Outline: as §2

[18] = test system: barnyardgrass (Echinochloa crus-galli); assay: Test B flooded paddy test, plant response rating; details: 250 g ai/ha; Flood; scale of 0 to 100 where 0 is no effect and 100 is complete control; 13 to 15 days
Outline: as §2

[19] = test system: sedge, umbrella (small-flower umbrella sedge, Cyperus difformis); assay: Test B flooded paddy test, plant response rating; details: 250 g ai/ha; Flood; scale of 0 to 100 where 0 is no effect and 100 is complete control; 13 to 15 days
Outline: as §2

[20] = test system: ragweed (common ragweed, Ambrosia elatior); assay: Test A postemergence, visual injury rating; details: 0 is no effect, 100 is complete control
Outline: as §1

[21] = test system: blackgrass (Alopecurus myosuroides); assay: Test A postemergence, visual injury rating; details: 0 is no effect, 100 is complete control
Outline: as §1

[22] = test system: Italian ryegrass (Lolium multiflorum); assay: Test A postemergence, visual injury rating; details: 0 is no effect, 100 is complete control
Outline: as §1

[23] = test system: galium (catchweed bedstraw, Galium aparine); assay: Test A postemergence, visual injury rating; details: 0 is no effect, 100 is complete control
Outline: as §1

kochia (Kochia scoparia) [24] = assay: Test A postemergence, visual injury rating; details: 0 is no effect, 100 is complete control
Outline: as §1

[25] = test system: ragweed (common ragweed, Ambrosia elatior); assay: Test A preemergence, visual injury rating
Outline: as §1

[26] = test system: Italian ryegrass (Lolium multiflorum); assay: Test A preemergence, visual injury rating
Outline: as §1

kochia (Kochia scoparia) [27] = assay: Test A preemergence, visual injury rating
Outline: as §1

[28] = test system: ducksalad (Heteranthera limosa); assay: Test C flooded paddy test, plant response rating; details: flood, scale 0 to 100
Excerpt: (§3) At the same time, plants selected from these crop and weed species and also chickweed (common chickweed, Stellaria media), buckwheat, wild (wild buckwheat, Polygonum convolvulus), wild mustard (Sinapis arvensis), field poppy (Papaver rhoeas), field violet (Viola arvensis), geranium, cutleaf (cutleaf geranium, Geranium dissectum), Canada thistle (Cirsium arvense), and speedwell (bird's-eye speedwell, Veronica persica), were planted in pots containing Sunshine Redi-Earth® planting medium comprising spaghnum peat moss, vermiculite, starter nutrients and dolomitic limestone and treated with postemergence applications of test chemicals formulated in the same manner. Plants ranged in height from 2 to 18 cm (1- to 4-leaf stage) for postemergence treatments. Treated plants and controls were maintained in a greenhouse for 13 to 15 d, after which time all species were compared to controls and visually evaluated. Plant response ratings, summarized in Table C, are based on a scale of 0 to 100 where 0 is no effect and 100 is complete control. A dash (-) response means no test result.
(§4) Plant species in the flooded paddy test consisted of rice (Oryza sativa), sedge, umbrella (small-flower umbrella sedge Cyperus difformis), ducksalad (Heteranthera limosa), and barnyardgrass (Echinochloa crus-galli) grown to the 2-leaf stage for testing. At time of treatment, test pots were flooded to 3 cm above the soil surface, treated by application of test compounds directly to the paddy water, and then maintained at that water depth for the duration of the test.

rice (Oryza sativa) [29] = assay: Test C flooded paddy test, plant response rating; details: flood, scale 0 to 100
Excerpt: as §3, §4

[30] = test system: sedge, umbrella (small-flower umbrella sedge Cyperus difformis); assay: Test C flooded paddy test, plant response rating; details: flood, scale 0 to 100
Excerpt: as §3, §4

[31] = test system: barnyardgrass (Echinochloa crus-galli); assay: Test C flooded paddy test, plant response rating; details: flood, scale 0 to 100
Excerpt: as §3, §4

[32] = 31 g ai/ha, 0 to 100 scale, approximately 10 days
[33] = 31 g ai/ha, 0 to 100 scale, 0 no effect, 100 complete control
[34] = 125 g ai/ha, 0 to 100 scale (0 no effect, 100 complete control)

CC(C)ON=Cc1ccccc1Oc1ncc(Cl)cn1 [Compound 57]
0: Wheat plant response rating [9] | Morningglory plant response rating [10] | Corn plant response rating (corn (Zea mays) [11]) | Plant response rating, Ducksalad [16] | Plant response rating, Rice (rice (Oryza sativa) [17]) | Plant response rating, Barnyardgrass [18] | Plant response rating, Sedge, Umbrella [19]
10: Morningglory plant response rating (0 to 100 scale) [3]
100: Crabgrass, Large plant response rating [8]
90: Foxtail, Giant plant response rating ([15]; 1000 g ai/ha)
20: Wheat plant response rating (0 to 100 scale) ([2]; 1000 g ai/ha) | Corn plant response rating (0 to 100 scale) (corn (Zea mays) [4]; 1000 g ai/ha) | Barnyardgrass plant response rating (0 to 100 scale) ([6]; 1000 g ai/ha) | Foxtail, Giant plant response rating (0 to 100 scale) ([7]; 1000 g ai/ha) | Velvetleaf plant response rating [14]
50: Barnyardgrass plant response rating ([13]; 1000 g ai/ha)
40: Pigweed plant response rating (0 to 100 scale) ([5]; 1000 g ai/ha)
60: Pigweed plant response rating ([12]; 1000 g ai/ha)
30: Crabgrass, Large plant response rating (0 to 100 scale) [1]

CC(=NOC(C)(C)C)c1ccccc1Oc1ncc(Cl)cn1 [Compound 59]
0: Morningglory plant response rating (0 to 100 scale) [3] | Barnyardgrass plant response rating (0 to 100 scale) ([6]; 1000 g ai/ha) | Wheat plant response rating [9] | Morningglory plant response rating [10] | Corn plant response rating (corn (Zea mays) [11]) | Velvetleaf plant response rating [14]
30: Wheat plant response rating (0 to 100 scale) ([2]; 1000 g ai/ha) | Pigweed plant response rating (0 to 100 scale) ([5]; 1000 g ai/ha) | Pigweed plant response rating ([12]; 1000 g ai/ha) | Foxtail, Giant plant response rating ([15]; 1000 g ai/ha)
80: Crabgrass, Large plant response rating [8]
20: Corn plant response rating (0 to 100 scale) (corn (Zea mays) [4]; 1000 g ai/ha) | Barnyardgrass plant response rating ([13]; 1000 g ai/ha)
10: Crabgrass, Large plant response rating (0 to 100 scale) [1] | Foxtail, Giant plant response rating (0 to 100 scale) ([7]; 1000 g ai/ha)

FC(F)(F)CCOCc1c(Br)cccc1Oc1ncc(Cl)cn1 [Compound 66]
80: Ducksalad plant response rating ([28]; 62 g ai/ha) | Barnyardgrass plant response rating ([31]; 250 g ai/ha)
85: Ducksalad plant response rating ([28]; 125 g ai/ha) | Sedge, Umbrella plant response rating ([30]; 125 g ai/ha)
10: Blackgrass plant response rating [21, 32]
50: Ryegrass, Italian plant response rating (0 to 100 scale) ([22]; 125 g ai/ha) | Kochia plant response rating (0 to 100 scale) (kochia (Kochia scoparia) [24]; 125 g ai/ha)
90: Plant response rating, Barnyardgrass [13, 33]
75: Sedge, Umbrella plant response rating ([30]; 62 g ai/ha)
20: Ragweed plant response rating (0 to 100 scale) ([20]; 125 g ai/ha) | Corn plant response rating (corn (Zea mays) [4]; [32]) | Kochia plant response rating (kochia (Kochia scoparia) [24]; [32]) | Plant response rating, Pigweed [12, 33] | Rice plant response rating (rice (Oryza sativa) [29]; 250 g ai/ha)
25: Barnyardgrass plant response rating ([31]; 125 g ai/ha)
0: Ragweed plant response rating [20, 32] | Wheat plant response rating [2, 32] | Ryegrass, Italian plant response rating [22, 32] | Plant response rating, Ragweed [25, 33] | Plant response rating, Ryegrass, Italian [26, 33] | Plant response rating, Kochia (kochia (Kochia scoparia) [27]; [33]) | Rice plant response rating (rice (Oryza sativa) [29]; 31 g ai/ha) | Rice plant response rating (rice (Oryza sativa) [29]; 62 g ai/ha) | Rice plant response rating (rice (Oryza sativa) [29]; 125 g ai/ha) | Barnyardgrass plant response rating ([31]; 31 g ai/ha) | Barnyardgrass plant response rating ([31]; 62 g ai/ha) | Plant response rating, Rice (rice (Oryza sativa) [17])
40: Pigweed plant response rating [5, 32] | Barnyardgrass plant response rating [6, 32] | Kochia plant response rating (kochia (Kochia scoparia) [27]; [34]) | Ducksalad plant response rating ([28]; 31 g ai/ha) | Sedge, Umbrella plant response rating ([30]; 31 g ai/ha)
30: Wheat plant response rating (0 to 100 scale) ([2]; 125 g ai/ha) | Galium plant response rating [23, 32] | Foxtail, Giant plant response rating [7, 32] | Ryegrass, Italian plant response rating [26, 34] | Plant response rating, Barnyardgrass [18]
95: Ducksalad plant response rating ([28]; 250 g ai/ha) | Sedge, Umbrella plant response rating ([30]; 250 g ai/ha) | Plant response rating, Sedge, Umbrella [19]
70: Corn plant response rating (0 to 100 scale) (corn (Zea mays) [4]; 125 g ai/ha) | Plant response rating, Foxtail, Giant [15, 33]
100: Blackgrass plant response rating (0 to 100 scale) ([21]; 125 g ai/ha) | Galium plant response rating (0 to 100 scale) ([23]; 125 g ai/ha) | Pigweed plant response rating (0 to 100 scale) ([5]; 125 g ai/ha) | Barnyardgrass plant response rating (0 to 100 scale) ([6]; 125 g ai/ha) | Foxtail, Giant plant response rating (0 to 100 scale) ([7]; 125 g ai/ha) | Ragweed plant response rating [25, 34] | Pigweed plant response rating ([12]; 125 g ai/ha) | Barnyardgrass plant response rating ([13]; 125 g ai/ha) | Foxtail, Giant plant response rating ([15]; 125 g ai/ha) | Plant response rating, Ducksalad [16]
